Entries after “also recorded” stand apart in the source; their conditions may differ. Counter-ions that a name gives are not always drawn.
Tests used:
HO-1 [1] = assay: HO-1 protein expression in human THP-1 cells; format: cell-based
Protocol: (§1) Human monocytes (THP-1 cells) were cultured in RPMI 1640-Glutamax medium supplemented with 1% penicillin/streptomycin, 1% sodium pyruvate and 10% fetal bovine serum (RPMIc). Cells at confluence were washed with PBS and treated with compound C at different concentrations for 6 h according to the experimental protocol. Compound C was dissolved in DMSO at 0.1% as a final concentration in complete medium.

IL-1β = IL-1β production in LPS-treated human THP-1 cells (ELISA); format: cell-based; settings: 5 μM, 24 h
Protocol: IL-1β production was measured in the supernatants of human THP-1 cells treated with LPS (100 μg/ml) in the presence or absence of 5 μM comp. C, DMF or CORM-401. After 24 h incubation, the medium was collected and IL-1β levels quantified using an ELISA kit (R&D Systems) following the manufacturer's instructions.

[2] = CO release in COP-1 fluorescence assay in buffer; format: physicochemical; settings: in vitro conditions described in the examples, not specified further
Protocol: The release of CO from hybrids was assessed using COP-1, a fluorescent probe sensitive to CO. The fluorescence intensity of COP-1 (2 μM, Δex=475 nm) in buffer was measured in a cuvette to obtain a background fluorescence spectrum and spectra were then recorded immediately after addition of 50 μM tested compounds. The mean fluorescence intensity (MFI) of 3 independent reading was calculated using the fluorescence intensity values recorded at 507 nm after 60 min.

human THP-1 cells [3] = assay: CO delivery to human THP-1 cells loaded with COP-1; format: cell-based; settings: 10 μM, 15 min at 37° C.
Protocol: To detect whether the compounds delivered CO to cells, human THP-1 cells were initially suspended in Dulbecco Phosphate Buffer Solution (+Ca, +Mg; Gibco® Cell Culture, Life Technologies) and then treated with compounds at a concentration of 10 μM for 15 min at 37° C. in 5 ml polypropylene round-bottom tubes (BD Falcon, Dominique Dutscher). Cells were then incubated for 30 min with 1 μM COP-1. Intracellular fluorescence of COP-1 was measured using a CyAnTM ADP LX7 Analyzer (Beckman Coulter) as previously reported.

Nrf2 [4] = assay: nuclear expression of Nrf2 in BV2 microglia (Western blot); format: cell-based, mouse; settings: cells and concentration not given
Protocol: (§2) Cells were grown in an atmosphere of 5% CO2 at 37° C. in either 75 cm^2 flasks, 100 mm diameter Petri dishes, 6- or 24-well plates containing medium supplemented with 10% fetal bovine serum (Lonza) and penicillin (100 U·mL^−1)/streptomycin ([…]; Life Technologies). BV2 mouse microglial cells were grown in RPMI-1640 containing 2 g·L^−1 glucose and supplemented with 0.3 g·L^−1 1-glutamine.
BV2 microglia were incubated with 10 μM of hybrids for 2 h to assess nuclear translocation of Nrf2. Nuclear fractions were isolated using a Nuclear Extract Kit from Active Motif (La Hulpe, Belgium), according to the manufacturer's instructions, and stored at −80° C. Protein concentrations were measured using a Pierce BCA Protein Assay kit (Thermo Scientific).
(§3) Whole cell lysates (20 μg protein/sample) were resolved on 12% acrylamide gels, respectively, and proteins transferred to polyvinylidene difluroride membranes (Millipore, Brussels, Belgium). […] Bands were detected with chemiluminescent substrates (Pierce ECL®, Thermo Scientific or RevelBIOt® Intense, Ozyme) and images captured using a G:Box F3 Imagery Station and GeneSys Software (Syngene, Cambridge, UK). […]

HO-1 [5] = assay: HO-1 protein expression in BV2 microglia (Western blot); format: cell-based, mouse; settings: cells and concentration not given
Protocol: as §2
To determine HO-1 protein expression, BV2 microglia were incubated with 10 μM hybrids (compounds) for 6 h. […] Protein concentrations were measured using a Pierce BCA Protein Assay kit (Thermo Scientific).
as §3

HO-1 [6] = assay: HO-1 protein expression in H9c2 cardiomyocytes; format: cell-based, rat; settings: 1 μM to 10 μM, 6 h or 24 h, 20% or 5% O2
Protocol: The assessment of HO-1 induction by western blotting was performed as previously (Example 4.1). H9C2 cells rat cardiomyocytes were cultured in Dubelcco's Modified Eagle Medium containing: glucose 4.5 g/l, L-glutamine 2 mM, pyruvate) supplemented with fetal bovine serum (FBS) 10%, a mixture of penicillin (10,000 IU/ml)/streptomycin (10 mg/ml) (Gibco Life Technologies) and sodium Pyruvate 1% (Gibco Life Technologies). Cells were grown and subcutlured either in a normal incubator at 20% O2 or in a dedicated chamber in which the O2 levels was kept constantly at 5%, a value which reflects more closely the O2 concentrations found in vivo. For the adaptation of cells at 5 O2, cells were grown and passaged at least twice before conducting any experiment.
H9c2 cardiomyocytes were then incubated with increasing concentration of compound C (1 μM to 10 μM) for 6 h or 24 h either at 20% or 5% O2.

Nrf2 [7] = assay: Nrf2 expression in human THP-1 cells; format: cell-based
Protocol: as §1

human THP-1 cells [8] = assay: cytotoxicity (LDH assay) in THP-1 cells; format: cell-based; settings: 24 h, increasing concentrations, up to 10 μM
Protocol: (§4) Cytotoxicity was evaluated in THP-1 cells and H9c2 cardiomyocytes 24 h after incubation with increasing concentrations of compound C.
Human monocytes (THP-1 cells) were cultured in RPMI 1640-Glutamax medium supplemented with 1% penicillin/streptomycin, 1% sodium pyruvate and 10% fetal bovine serum (RPMIc). Cells at confluence were washed with PBS and treated with compound C at different concentrations and for different periods of time according to the experimental protocol. Compound C was dissolved in DMSO at 0.1% as a final concentration in complete medium.
(§5) Cell viability was assessed using the previously described LDH assay.

H9c2 cardiomyocytes = assay: cytotoxicity (LDH assay) in H9c2 cardiomyocytes; format: cell-based, rat; settings: 24 h, 20% or 5% oxygen, concentrations used
Protocol: as §4
H9c2 cardiomyocytes were cultured as previously (Example 4.2).
as §5

[9] = blood HbCO levels in mice after oral gavage; format: in vivo; settings: oral gavage, 1, 3 and 6 hours after administration
Protocol: Male C57 BL/6J mice were used for all experiments (Janvier Labs, France). Animals received at 8 weeks of age were placed on a standard diet and allowed to acclimatize for 2 weeks on a 12 hr light/dark cycle. All experiments were performed in compliance with INSERM guidelines for the use of animals and approved by the institutional review board at Paris-Est Creteil Val de Marne University. Mice were administered by oral gavage with a single dose of the following: 1) 200 μl of sesame oil (vehicle, control group); 2) Compound A (3 mg in 200 μl sesame oil); 3) Compound B (3 mg in 200 μl sesame oil).
Mice were sacrificed 6 hr after treatment by cervical dislocation. Livers, lungs, hearts and brains were excised and snap frozen for western blot analysis. Tissue samples were homogenized in lysis buffer (150 mM sodium chloride, 1.0% Triton X-100, 0.5% sodium deoxycholate 0.1% sodium dodecyl sulphate, 50 mM Tris, pH 8.0). Lysates were centrifuged for 20 min at 15,000 g at 4° C. and supernatants were collected and stored at −80° C. for further analysis. […] The release of CO from compounds of the invention was assessed spectrophotometrically by measuring the conversion of deoxyhemoglobin to carbonmonoxy hemoglobin (HbCO). […] The percent of HbCO was then calculated based on the absorbances at 420 and 432 nm with the reported extinction coefficients for mouse blood. […]

HO-1 [10] = assay: cardiac HO-1 mRNA expression in mice after oral gavage; format: in vivo; settings: 40 mg/kg oral gavage, 6 h
Protocol: (§6) FIG. 11 represents blood HbCO levels in vivo after compound C were administered to mice by oral gavage (FIG. 11A); mRNA expression of Nrf2 dependent genes (HO-1 and NQO-1) in the heart of mice after HbCO after administration of compound C (40 mg/kg) by oral gavage (FIG. 11B).

NQO1 = assay: cardiac NQO1 mRNA expression in mice after oral gavage; format: in vivo; settings: 40 mg/kg oral gavage, 24 h
Protocol: as §6

BV2 microglia cells = assay: reduced glutathione (GSH), DTNB colorimetric assay in BV2 microglia; format: cell-based, mouse; settings: 10 μM
Protocol: The 5,5′ dithiobis-(2-nitrobenzoic acid) (DTNB) colorimetric assay was used for the measurement of reduced glutathione (GSH). Briefly, BV2 microglia cells were seeded in 6-well-plates and incubated with 10 μM hybrids and dimethyl fumarate (DMF, positive control) for 3, 6 and 24 h. At the end of the incubation period, cells were initially washed with phosphate buffers solution, then scraped in 600 μL of 2% (w/v) 5-sulposalicylic acid solution and transferred to a 1.5 ml microtube, and finally centrifuged for 5 min at 10,000×g. An aliquot of the supernatant (500 μl) was then reacted with 0.5 ml DTNB solution (0.3 M sodium phosphate buffer, 10 mM EDTA and 0.2 mM DTNB) and after 5 min the absorbance was read spectrophotometrically at 412 nm (extinction coefficient 14.3 mM^−1 cm^−1).

[11] = THP-1 cells, 6 h, different concentrations
[12] = identical concentrations (5 μM)

Compound	concentration from which an increase in HO-1 protein expression starts (HO-1 [1]; THP-1 cells, 6 h)	IL-1β production (IL-1β)	CO release (summary statement) [2]	CO release in cells (intracellular COP-1 fluorescence) (human THP-1 cells [3])	nuclear expression of Nrf2 (summary statement) (Nrf2 [4])	HO-1 protein expression (summary statement) (HO-1 [5])	HO-1 protein expression (HO-1 [6])	activation of Nrf2 (Nrf2 [7]; [11])	Nrf2 activation compared with CORM-401 and DMF (Nrf2 [7]; [12])	HO-1 protein expression (HO-1 [1]; [11])	HO-1 activation compared with CORM-401 and DMF (HO-1 [1]; [12])	toxicity toward human THP-1 cells (human THP-1 cells [8])	toxic effect toward H9c2 cardiomyocytes (H9c2 cardiomyocytes)	HbCO levels [9]	cardiac HO-1 mRNA expression (HO-1 [10])	cardiac NQO1 mRNA expression (NQO1)	intracellular reduced glutathione (GSH) (BV2 microglia cells; 3 or 6 h)	intracellular reduced glutathione (GSH) (BV2 microglia cells; 24 h)
CN(CC(=O)O)C(=S)[S-].[C-]#[O+].[C-]#[O+].[C-]#[O+].[C-]#[O+].[Mn] [CORM-401, reference compound]	10 fold this concentration is not sufficient	no effect																
COc1ccc(/C=C/C(=O)OCCN(C)C2=[S][Mn][S]2)cc1OC.[C-]#[O+].[C-]#[O+].[C-]#[O+].[C-]#[O+] [Compound C]	1 µM	decreased IL-1β production	significant amount of CO	significant and high amount of CO	two fold increase	two fold increase	induced an increase in HO-1 protein expression; also recorded: significant expression of HO-1	strongly promoted the activation of Nrf2	more potent than DMF and comparative compound CORM-401	induction of HO-1 protein expression; also recorded: concentration-dependent increase in HO-1 protein expression	more potent than DMF and comparative compound CORM-401	do not show significant toxicity	does not cause any visible toxic effect	promotes an increase in HbCO levels	promotes an increase	promotes an increase		
COC(=O)/C=C/C(=O)OC [DMF, dimethyl fumarate]	10 fold this concentration is not sufficient	no effect															raised the level of GSH from 6 h of treatment	significant raise

Source: patent US10519179B2, “Highly efficient NRF2 activators-co-releasing molecule hybrids, their use in the treatment of inflammatory or cardiovascular diseases and their process of preparation” (Centre National de la Recherche Scientifique, priority 2015, dated 2019)
